For experiment [1], the system named is human acute promyelocytic leukemia cells HL 60. Kind of experiment: Differentiation of HL-60 cells: NBT reduction (counting formazan-containing cells), ED50. The format is cell-based. The settings on record: for pEC50: Homo sapiens, read-out: ED50 (effective dose which causes differentiation of 50% of the cultured cells); for activity (in words): HL-60 differentiation, Table 1. The protocol:
The test of the activities of the compounds of this invention has been conducted by measuring the concentration required for inducing the differentiation of human acute promyelocytic leukemia cells HL 60, according to the methods described in detail hereinafter.
(§1) The HL-60 cell are cultured in plastic flasks in RPMI 1640 medium supplemented with 5% heat inactivated fetal calf serum and antibiotics (penicillin G and streptomycin). The cells (3×10^4 /ml) are cultured with a compound of the present invention for 4 days. The cells are fixed and stained with Wright-Giemsa to examine the morphological changes of the nuclei.
The biochemical activity of cells treated with the compound is measured as follows:
The cells after 5 days incubation are centrifuged and diluted with RPMI 1640 medium, supplemented with 5% fetal calf serum to provide a definite number of the cells. To the diluted cell suspension are then added 200 ng/ml of 12-o-tetradodecanoylphorbol-13 -acetate (TPA) and the resulting culture medium is then incubated for 20 minutes at 37° C. in the presence of 0.1% of NBT. Thus, the mature differentiated cells containing blue-black formazan is counted by microscopy, so that the ratio of the cells having the ability to reduce NBT, to total cells, can be calculated.
(§2) The biological test was performed according to the method previously described, using the leukemia cells HL 60. The morphological changes were observed under a light microscope. Biochemical activity reducing nitro-blue tetrazolium is assayed by counting the number of cells which contain formazan. The specific activity, ED50 (the concentration which causes the differentiation of 50% of the total cells, represented by M), was calculated and shown in the Table. As a positive control for comparison, all trans retinoic acid was used.

The subject of experiment [2] is chemically-induced skin carcinomas in mice. The note with it: cited from earlier work.
Experiment [3] relates to chemically-induced papillomas of the skin of mice. The settings on record: minute quantities; cited from earlier work.
In experiment [4] the test system is human acute promyelocytic leukemia cells (HL-60). Kind of experiment: Differentiation of HL-60 cells: morphological changes of nuclei (Wright-Giemsa). The format is cell-based. The settings on record: HL-60, 4 days culture. The method, then:
as §1, §2

For experiment [5] the following is noted: as seen from the therapeutic index; cited from earlier work.

pEC50: −log10 of the molar value. Where two headings read alike, the source gives them in different places.

On to `COC(=O)c1ccc(-c2cc(=O)c3cc4c(cc3o2)C(C)(C)CCC4(C)C)cc1` [compound 4], for which the pEC50 in experiment [1] (96 h, HL-60 cells) was 9.29.
On to `CCOC(=O)c1ccc(/C=C(\C)c2ccc3c(c2)C(C)(C)CCC3(C)C)cc1` [Ro 13 6298], for which the “therapeutic influence on skin carcinomas” value in experiment [2] was “therapeutic influence”. Also, in experiment [3], the regression of papillomas result is reported as “regression”.
As to `CC1(C)CCC(C)(C)c2cc3c(=O)cc(-c4ccc(C(=O)O)cc4)oc3cc21` [compound 5], in experiment [1] (96 h, HL-60 cells), the pEC50 was 10.20.
Consider `CC1(C)CCC(C)(C)c2cc3c(=O)c(O)c(-c4ccc(C(=O)O)cc4)oc3cc21` [compound 6], for which the pEC50 in experiment [1] (96 h, HL-60 cells) is 8.92.
As for `CC1(C)CCC(C)(C)c2cc(C(=O)C=C(O)c3ccc(C(=O)O)cc3)c(O)cc21` [No. 8, 4-[1-hydroxy-3-(3-hydroxy-5,6,7,8-tetrahydro-5,5,8,8-tetra-methyl-2-naphthalenyl)-3-oxo-1-propenyl] benzoic acid], the “activity (in words)” value in experiment [1] is “most active compound”.
Consider `CC1(C)CCC(C)(C)c2cc(C(=O)C=Cc3ccc(C(=O)O)cc3)c(O)cc21` [compound 7], for which the pEC50 in experiment [1] (96 h, HL-60 cells) is 10.00.
On to `CC1=C(/C=C/C(C)=C/C=C/C(C)=C/C(=O)O)C(C)(C)CCC1` [retinoic acid, all trans retinoic acid, reference compound], for which the “differentiation to mature granulocytes” value in experiment [4] is given as “differentiated to mature granulocytes”. Further, the pEC50 in experiment [1] (HL-60, 96 h) is 8.39.
`CCOC(=O)c1ccc(/C=C(\C)c2ccc3c(c2)C(C)(C)CCC3(C)C)cc1` [Artinoid]: the “activity relative to Retinoic acid” value in experiment [5] was “ten times as strong”.
On to `CC(C)(C)c1ccc(C(=O)C=C(O)c2ccc(C(=O)O)cc2)c(O)c1` [compound 9], for which, in experiment [1] (96 h, HL-60 cells), the pEC50 was 6.03.
Still for that read-out and setting: next, `CC(C)(C)c1ccc2c(=O)cc(-c3ccc(C(=O)O)cc3)oc2c1` [compound 2]: 6.68; `CC1(C)CCC(C)(C)c2cc(C(=O)C=C(O)c3ccc(C(=O)O)cc3)c(O)cc21` [compound 8]: 10.04.
In the case of `CC1(C)CCC(C)(C)c2cc3c(=O)cc(-c4ccc(C(=O)O)cc4)oc3cc21` [No. 5, 4-(6,7,8,9-tetrahydro-6,6,9,9,-tetramethyl-4H-4-oxo-naphtho[2,3-b]pyran-2-yl) benzoic acid], the “activity (in words)” value in experiment [1] is recorded as “one of the strongest compounds”.
For the compound `O=C(O)c1ccc(-c2cc(=O)c3ccccc3o2)cc1` [compound 1], the “ED50 (effective dose which causes differentiation of 50% of the cultured cells)” value in experiment [1] (HL-60 cells) was “inactive (10^-5)”.

The values are drawn from US4925979A, “Flavone carboxylic acid derivatives” (Shionogi & Co., Ltd., priority 1986, dated 1990).
